Laboratory results published in EP0728482A2, “Use of hcp specific compounds to enhance erythropoiesis” (SMITHKLINE BEECHAM CORPORATION, priority 1995, dated 1996).
pIC50, pKi: −log10 of the molar value.

Tests used:
human fyn SH2 domain = molecular target: T1, human fyn SH2 domain (Homo sapiens, UniProt P06241); assay: ELISA-based SH2 domain / pY peptide binding assay, fyn SH2 domain
T1 construct: made in house; host or cells: E. coli (pGEX-2T)
Method: (§1) The inhibitory activity of compounds at the different human SH2 domains was determined in vitro using SH2 domains expressed as fusion proteins in E. coli. The SH2 domains used herein were the human forms of the src SH2 domain, Grb2 SH2 domain, lck SH2 domain, fyn SH2 domain, SH-PTP2 SH2 domain, p85 SH2 domain and hcp SH2 domain.
(§2) Fusion proteins having the structure GST-X-SH2 were prepared as described in the GST gene fusion kit system available from Pharmacia (New Jersey). GST is the tagging sequence glutathione s-transferase epitope (SEQ ID NO: 8) for fyn, Grb2 and SH-PTP2 and is the tagging sequence glutathione s-transferase epitope (SEQ ID NO: 9) for p85. SH2 refers to the SH2 domains of fyn, Grb2, p85 and SH-PTP2 which were expressed and purified using glutathione Sepharose 4B (Pharmacia) according to "Current Protocols in Molecular Biology", ed. FM Ausubel et al., pub. John Wiley and Sons, Inc., (1995), p 16.7.1. X is an appropriate linker, preferably of 6 to 21 base pairs, used to keep the SH2 construct in frame and complement cloning. As such, the sequence of X is not critical. One skilled in the art can readily construct the appropriate linker. The DNA sequence encoding each GST-X-SH2 fusion protein was designed such that the indicated restriction sites (BamH1 and EcoRI) flank the SH2 region. […]

human Grb2 SH2 domain = molecular target: T2, human Grb2 SH2 domain (Homo sapiens, UniProt P62993); assay: ELISA-based SH2 domain / pY peptide binding assay, Grb2 SH2 domain
T2 construct: made in house; host or cells: E. coli (pGEX-2T)
Method: as §1, §2

[1] = Ki calculated from IC50 with the expanded equation
[2] = inhibition of binding of 0.1 uM biotinylated pY peptide to SH2 domain fusion protein

T1 sequence (P06241 143-252): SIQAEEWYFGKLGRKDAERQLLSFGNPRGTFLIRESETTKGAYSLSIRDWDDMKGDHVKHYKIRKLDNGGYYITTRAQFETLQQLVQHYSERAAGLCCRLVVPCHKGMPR
T2 sequence (P62993 58-159): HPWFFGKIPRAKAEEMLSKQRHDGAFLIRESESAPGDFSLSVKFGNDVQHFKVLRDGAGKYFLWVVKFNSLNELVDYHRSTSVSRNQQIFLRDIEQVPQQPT

CCCCCCNC(=O)[C@H]1CC[C@H](CNC(=O)c2ccc(C(=O)c3ccc(C(=O)O)cc3)cc2)CC1 [Compound 6, 4-carboxy-benzophenone-4-carboxamido-trans-4-methyl-cyclohexyl-N-hexyl carboxamide]
pKi (human fyn SH2 domain; [1]): < 3.00 | pIC50 (human fyn SH2 domain; [2]): < 3.52 | pKi (human Grb2 SH2 domain; [1]): < 3.00 | pIC50 (human Grb2 SH2 domain; [2]): < 3.52
